# Measured values taken from US20140243302A1, “BRIDGED BICYCLIC COMPOUNDS FOR THE TREATMENT OF BACTERIAL INFECTIONS” (priority 2011, published 2014).
# Test system: Staphylococcus aureus Smith
# Experiment: MIC assay, modified agar dilution (CLSI), S. aureus Smith
# Type: cell-based
# Details: Staphylococcus aureus, agar dilution, 35° C., 16-20 hr; lowest concentration that completely inhibited growth; read-out: S_aureus_Smith_WT_MIC
# Outline: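 Agar dilution per CLSI on Mueller Hinton agar (plus 5% horse blood for S. pneumoniae and E. faecium), compound 128 to 0.001 μg/mL in two-fold steps. Spots of ~1×10^4 CFU incubated at 35 °C for 16-20 hr before MIC scoring.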
row,MIC [µg/mL],SMILES
1,0.25,"C=Cc1c(CNC23CCC(CCc4c(F)cnc5ccc(OC)nc45)(CC2)OC3)nc2c(c1C)OCC(=O)N2.Cl [Example 199, 1-(2-(3-Fluoro-6-methoxy-1,5-naphthyridin-4-yl)ethyl)-N-((8-methyl-3-oxo-7-vinyl-3,4-dihydro-2H-pyrido[3,2-b][1,4]oxazin-6-yl)methyl)-2-oxabicyclo[2.2.2]octan-4-aminium chloride]"
2,0.06,"COc1ccc2ncc(F)c(C[C@H](O)C34CCC(NCc5ccc6c(c5)NC(=O)CS6)(CC3)CO4)c2n1.Cl [Example 204, (S)-1-(2-(3-Fluoro-6-methoxy-1,5-naphthyridin-4-yl)-1-hydroxyethyl)-N-((3-oxo-3,4-dihydro-2H-benzo[b][1,4]thiazin-6-yl)methyl)-2-oxabicyclo[2.2.2]octan-4-aminium chloride]"
3,16,"Cl.O=C1COc2ccc(CNC34CCC(CCn5c(=O)ccc6ncc(OCC7CC7C(=O)O)cc65)(CC3)OC4)nc2N1 (stereo not drawn) [Example 283, 2-((6-Oxo-5-(2-(4-((3-oxo-3,4-dihydro-2H-pyrido[3,2-b][1,4]oxazin-6-yl)methylamino)-2-oxabicyclo[2.2.2]octan-1-yl)ethyl)-5,6-dihydro-1,5-naphthyridin-3-yloxy)methyl)cyclopropanecarboxylic Acid Hydrochloride]"
4,0.125,"O=C1COc2ccc(CNC34CCC(CCc5c(F)cnc6ccc(N7CCOC7=O)nc56)(CC3)OC4)nc2N1 [Example 292, 6-((1-(2-(3-Fluoro-6-(2-oxooxazolidin-3-yl)-1,5-naphthyridin-4-yl)ethyl)-2-oxabicyclo[2.2.2]octan-4-ylamino)methyl)-2H-pyrido[3,2-b][1,4]oxazin-3(4H)-one]"
5,0.5,"O=C1COc2ccc(CNC34CCC(CCc5c(F)cnc6ccc(N7CCC(O)CC7)nc56)(CC3)OC4)nc2N1 [Example 293, 6-((1-(2-(3-Fluoro-6-(4-hydroxypiperidin-1-yl)-1,5-naphthyridin-4-yl)ethyl)-2-oxabicyclo[2.2.2]octan-4-ylamino)methyl)-2H-pyrido[3,2-b][1,4]oxazin-3(4H)-one]"
6,0.125,"O=C1COc2ccc(CNC34CCC(CCc5c(F)cnc6ccc(N7CC[C@H](O)C7)nc56)(CC3)OC4)nc2N1 [Example 294, (S)-6-((1-(2-(3-Fluoro-6-(3-hydroxypyrrolidin-1-yl)-1,5-naphthyridin-4-yl)ethyl)-2-oxabicyclo[2.2.2]octan-4-ylamino)methyl)-2H-pyrido[3,2-b][1,4]oxazin-3(4H)-one]"

# Second part, the compound before the results:
row,SMILES,MIC [µg/mL]
1,"N#Cc1ccc2c(c1)N(CCC13CCC(NCc4ccc5c(n4)NC(=O)CO5)(CC1)CO3)C(=O)CO2 [Example 202, 1-(2-(6-Cyano-3-oxo-2H-benzo[b][1,4]oxazin-4(3H)-yl)ethyl)-N-((3-oxo-3,4-dihydro-2H-pyrido[3,2-b][1,4]oxazin-6-yl)methyl)-2-oxabicyclo[2.2.2]octan-4-aminium chloride]",0.25
2,"O=C1COc2ccc(CNC34CCC(CCN5C(=O)COc6ccc(Br)cc65)(CC3)OC4)nc2N1 [Example 203, 1-(2-(6-Bromo-3-oxo-2H-benzo[b][1,4]oxazin-4(3H)-yl)ethyl)-N-((3-oxo-3,4-dihydro-2H-pyrido[3,2-b][1,4]oxazin-6-yl)methyl)-2-oxabicyclo[2.2.2]octan-4-aminium chloride]",0.25
3,"COc1ccc2ncc(F)c(C[C@H](O)C34CCC(NCc5ccc6c(c5)NC(=O)CS6(=O)=O)(CC3)CO4)c2n1 [Example 205, (S)—N-((1,1-Dioxido-3-oxo-3,4-dihydro-2H-benzo[b][1,4]thiazin-6-yl)methyl)-1-(2-(3-fluoro-6-methoxy-1,5-naphthyridin-4-yl)-1-hydroxyethyl)-2-oxabicyclo[2.2.2]octan-4-aminium chloride]",2
4,"COc1ccc2ncc(F)c(C[C@H](O)C34CCC(NCc5ccc6c(n5)NCCO6)(CC3)CO4)c2n1 [Example 206, (S)-6-(((1-(2-(3-Fluoro-6-methoxy-1,5-naphthyridin-4-yl)-1-hydroxyethyl)-2-oxabicyclo[2.2.2]octan-4-yl)ammonio)methyl)-3,4-dihydro-2H-pyrido[3,2-b][1,4]oxazin-4-ium chloride]",0.06
5,"COc1ccc2ncc(F)c(CCC34CCC(NCc5ccc6c(n5)OCCN6)(CC3)CO4)c2n1 [Example 207, 6-(((1-(2-(3-Fluoro-6-methoxy-1,5-naphthyridin-4-yl)ethyl)-2-oxabicyclo[2.2.2]octan-4-yl)ammonio)methyl)-2,3-dihydro-1H-pyrido[2,3-b][1,4]oxazin-1-ium chloride]",0.5
6,"COc1ccc2ncc(F)c(C(O)CC34CCC(NCc5ccc6c(n5)NC(=O)CO6)(CC3)CS4)c2n1 (stereo not drawn) [Example 208, 6-(((1-(2-(3-Fluoro-6-methoxy-1,5-naphthyridin-4-yl)-2-hydroxyethyl)-2-thiabicyclo[2.2.2]octan-4-yl)amino)methyl)-2H-pyrido[3,2-b][1,4]oxazin-3(4H)-one]",0.06
7,"CC(O)(CC12CCC(NCc3ccc4c(n3)NC(=O)CO4)(CC1)CO2)c1c(F)cnc2ccc(OCCO)nc12 (stereo not drawn) [Example 209, 1-(2-(3-Fluoro-6-(2-hydroxyethoxy)-1,5-naphthyridin-4-yl)-2-hydroxypropyl)-N-((3-oxo-3,4-dihydro-2H-pyrido[3,2-b][1,4]oxazin-6-yl)methyl)-2-oxabicyclo[2.2.2]octan-4-aminium chloride]",8
8,"O=C1COc2ccc(CNC34CCC(CC(O)c5c(F)cnc6ccc(OCCCO)nc56)(CC3)OC4)nc2N1 (stereo not drawn) [Example 210, 1-(2-(3-Fluoro-6-(3-hydroxypropoxy)-1,5-naphthyridin-4-yl)-2-hydroxyethyl)-N-((3-oxo-3,4-dihydro-2H-pyrido[3,2-b][1,4]oxazin-6-yl)methyl)-2-oxabicyclo[2.2.2]octan-4-aminium chloride]",0.25
9,"COc1ccc2ncc(F)c(CCC34CCC(NCc5cc6c(F)ccc(F)c6nc5OC)(CC3)CO4)c2n1 [Example 288, N-((5,8-Difluoro-2-methoxyquinolin-3-yl)methyl)-1-(2-(3-fluoro-6-methoxy-1,5-naphthyridin-4-yl)ethyl)-2-oxabicyclo[2.2.2]octan-4-amine]",0.125
